Measurements as given in PMC12155096 (International Journal of Molecular Sciences, 2025).
Counter-ions that a name gives are not always drawn.

Target: Photinus pyralis (firefly) luciferase (Photinus pyralis, UniProt P08659)
Experiment: biochemical
Type: biochemical
Conditions: not given

Chain of Photinus pyralis (firefly) luciferase (P08659 whole entry): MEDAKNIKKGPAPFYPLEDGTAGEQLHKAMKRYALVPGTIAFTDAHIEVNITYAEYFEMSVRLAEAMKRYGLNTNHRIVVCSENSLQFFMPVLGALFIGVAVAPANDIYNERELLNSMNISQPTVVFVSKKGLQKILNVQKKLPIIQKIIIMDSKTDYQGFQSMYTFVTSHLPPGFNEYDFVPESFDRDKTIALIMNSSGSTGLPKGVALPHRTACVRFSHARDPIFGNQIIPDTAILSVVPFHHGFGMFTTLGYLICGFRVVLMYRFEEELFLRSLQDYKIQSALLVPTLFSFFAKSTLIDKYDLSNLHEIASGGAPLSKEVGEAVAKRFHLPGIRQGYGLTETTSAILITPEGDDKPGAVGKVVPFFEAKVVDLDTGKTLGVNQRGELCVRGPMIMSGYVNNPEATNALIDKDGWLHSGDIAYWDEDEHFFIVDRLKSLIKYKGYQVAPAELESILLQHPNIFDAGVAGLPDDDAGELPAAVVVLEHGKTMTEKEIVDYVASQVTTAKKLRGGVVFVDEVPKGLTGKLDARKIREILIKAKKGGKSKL

Structure (SMILES)	Luciferase IC50 (half-maximal inhibitory concentration)	Luciferase IC50	IC50
Nc1c(Br)cc(Br)c2c1C(=O)c1ccccc1C2=O [1-Amino-2,4-dibromoanthraquinone]	Inactive	–	–
Brc1c2ccccc2c(Br)c2ccccc12 [9,10-Dibromoanthracene]	Inactive	–	–
Brc1cc2ccccc2c2ccccc12 [9-Bromophenanthrene]	Inactive	–	–
c1ccc2cc3ccccc3cc2c1 [Anthracene]	–	Inactive	–
O=C1c2ccccc2C(=O)c2ccccc21 [Anthraquinone]	Inactive	–	–
c1ccc2cc3c(cc2c1)-c1cccc2cccc-3c12 [Benzo(k)fluoranthene]	–	Inactive	–
c1ccc2c(c1)ccc1c3ccccc3ccc21 [Chrysene]	–	Inactive	–
c1ccc2cc3c4ccccc4c4ccccc4c3cc2c1 [Dibenz[a,c]anthracene]	–	Inactive	–
Brc1c(Br)c(Br)c(Br)c(Br)c1Br [Hexabromobenzene]	Inactive	–	–
c1ccc2nc(N3CCNCC3)ccc2c1 [Quipazine maleate]	–	Inactive	–
CCN(CC)C(=O)SCc1ccc(Cl)cc1 [Thiobencarb]	–	–	38.5 µM
ClC(Cl)=C(c1ccc(Cl)cc1)c1ccc(Cl)cc1 [p,p'-DDE]	Inactive	–	–

Target: T1, human CYP1A2 (Homo sapiens, UniProt P05177)
T1 sequence (P05177 1-516): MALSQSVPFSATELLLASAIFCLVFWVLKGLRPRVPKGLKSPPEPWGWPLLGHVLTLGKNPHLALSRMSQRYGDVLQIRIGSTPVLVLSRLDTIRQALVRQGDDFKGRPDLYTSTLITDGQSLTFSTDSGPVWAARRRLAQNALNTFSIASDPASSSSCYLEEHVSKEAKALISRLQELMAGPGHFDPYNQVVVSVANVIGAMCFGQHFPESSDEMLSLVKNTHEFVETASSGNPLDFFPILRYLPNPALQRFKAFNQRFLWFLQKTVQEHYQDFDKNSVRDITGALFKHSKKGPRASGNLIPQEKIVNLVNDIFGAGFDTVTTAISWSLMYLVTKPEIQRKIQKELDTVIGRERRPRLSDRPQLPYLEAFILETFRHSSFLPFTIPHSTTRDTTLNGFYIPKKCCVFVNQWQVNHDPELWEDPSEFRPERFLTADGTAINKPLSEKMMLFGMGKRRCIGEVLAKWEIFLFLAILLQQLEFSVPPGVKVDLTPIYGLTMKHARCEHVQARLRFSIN
Experiment: not given
Conditions: not given

Structure (SMILES)	CYP1A2 AC50 (half-maximal activity concentration)
N=C(N)NC(=O)Cc1c(Cl)cccc1Cl [Guanfacine hydrochloride]	Inactive

Same assay, conditions: human

Structure (SMILES)	CYP1A2 Efficacy (in parenthesis)
Nc1c(Br)cc(Br)c2c1C(=O)c1ccccc1C2=O [1-Amino-2,4-dibromoanthraquinone]	0.14 ± 0.03 (-99 ± 12) %
Brc1c2ccccc2c(Br)c2ccccc12 [9,10-Dibromoanthracene]	0.41 ± 0.27 (-85 ± 6) %
Brc1cc2ccccc2c2ccccc12 [9-Bromophenanthrene]	0.32 ± 0.09 (-101 ± 1) %
O=C1c2ccccc2C(=O)c2ccccc21 [Anthraquinone]	0.23 ± 0.06 (-96 ± 3) %
Brc1c(Br)c(Br)c(Br)c(Br)c1Br [Hexabromobenzene]	0.09 ± 0.01 (-45 ± 9) %
CCN(CC)C(=O)SCc1ccc(Cl)cc1 [Thiobencarb]	15.89 ± 0 (-91 ± 6) %
ClC(Cl)=C(c1ccc(Cl)cc1)c1ccc(Cl)cc1 [p,p'-DDE]	3.65 ± 1.85 (-100 ± 2) %

Target: T2, human CYP2C9 (Homo sapiens, UniProt P11712)
T2 sequence (P11712 whole entry): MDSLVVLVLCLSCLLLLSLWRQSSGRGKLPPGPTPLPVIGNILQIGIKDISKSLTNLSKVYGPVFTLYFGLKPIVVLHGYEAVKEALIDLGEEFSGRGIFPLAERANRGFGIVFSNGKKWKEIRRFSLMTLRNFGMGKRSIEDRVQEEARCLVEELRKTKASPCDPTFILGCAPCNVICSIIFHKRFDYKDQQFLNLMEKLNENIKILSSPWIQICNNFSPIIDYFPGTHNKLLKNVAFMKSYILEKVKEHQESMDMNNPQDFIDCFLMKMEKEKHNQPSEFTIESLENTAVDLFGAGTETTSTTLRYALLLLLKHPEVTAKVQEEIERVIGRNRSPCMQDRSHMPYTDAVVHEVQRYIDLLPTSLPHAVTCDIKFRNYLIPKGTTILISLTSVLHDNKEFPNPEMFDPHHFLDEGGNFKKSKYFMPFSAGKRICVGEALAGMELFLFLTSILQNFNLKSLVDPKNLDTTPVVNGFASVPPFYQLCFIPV
Experiment: not given
Conditions: not given

Structure (SMILES)	CYP2C9 IC50 (half-maximal inhibitory concentration)	CYP2C9 IC50
Nc1c(Br)cc(Br)c2c1C(=O)c1ccccc1C2=O [1-Amino-2,4-dibromoanthraquinone]	Inactive	–
Brc1c2ccccc2c(Br)c2ccccc12 [9,10-Dibromoanthracene]	Inactive	–
c1ccc2cc3ccccc3cc2c1 [Anthracene]	–	Inactive
O=C1c2ccccc2C(=O)c2ccccc21 [Anthraquinone]	Inactive	–
c1ccc2cc3c(cc2c1)-c1cccc2cccc-3c12 [Benzo(k)fluoranthene]	–	Inactive
c1ccc2c(c1)ccc1c3ccccc3ccc21 [Chrysene]	–	Inactive
c1ccc2cc3c4ccccc4c4ccccc4c3cc2c1 [Dibenz[a,c]anthracene]	–	Inactive
Brc1c(Br)c(Br)c(Br)c(Br)c1Br [Hexabromobenzene]	Inactive	–
c1ccc2nc(N3CCNCC3)ccc2c1 [Quipazine maleate]	–	Inactive

Same assay, conditions: human

Structure (SMILES)	CYP2C9 Efficacy (in parenthesis)
Brc1cc2ccccc2c2ccccc12 [9-Bromophenanthrene]	56.84 ± 0 (-53 ± 6) %
CCN(CC)C(=O)SCc1ccc(Cl)cc1 [Thiobencarb]	25.18 ± 0 (-91 ± 2) %
ClC(Cl)=C(c1ccc(Cl)cc1)c1ccc(Cl)cc1 [p,p'-DDE]	12.86 ± 6.41 (-84 ± 11) %

Target: T3, human CYP2C19 (Homo sapiens, UniProt P33261)
T3 sequence (P33261 whole entry): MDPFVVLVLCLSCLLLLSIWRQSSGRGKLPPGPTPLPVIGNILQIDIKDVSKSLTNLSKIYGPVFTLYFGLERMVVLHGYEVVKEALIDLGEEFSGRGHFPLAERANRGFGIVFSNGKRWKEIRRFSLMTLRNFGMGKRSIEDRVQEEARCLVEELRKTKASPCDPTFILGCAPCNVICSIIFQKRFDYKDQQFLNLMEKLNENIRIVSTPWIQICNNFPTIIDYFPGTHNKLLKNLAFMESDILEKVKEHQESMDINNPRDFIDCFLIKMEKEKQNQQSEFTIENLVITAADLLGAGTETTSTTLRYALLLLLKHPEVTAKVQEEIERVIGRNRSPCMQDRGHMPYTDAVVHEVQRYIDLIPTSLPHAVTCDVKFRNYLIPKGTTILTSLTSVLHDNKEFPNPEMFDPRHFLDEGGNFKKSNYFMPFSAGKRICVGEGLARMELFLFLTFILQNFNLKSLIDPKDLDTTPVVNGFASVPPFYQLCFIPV
Experiment: not given
Conditions: not given

Structure (SMILES)	CYP2C19 IC50 (half-maximal inhibitory concentration)	CYP2C19 IC50	CYP2C19 AC50 (half-maximal activity concentration)
Nc1c(Br)cc(Br)c2c1C(=O)c1ccccc1C2=O [1-Amino-2,4-dibromoanthraquinone]	Inactive	–	–
Brc1c2ccccc2c(Br)c2ccccc12 [9,10-Dibromoanthracene]	Inactive	–	–
O=C1c2ccccc2C(=O)c2ccccc21 [Anthraquinone]	Inactive	–	–
c1ccc2cc3c(cc2c1)-c1cccc2cccc-3c12 [Benzo(k)fluoranthene]	–	Inactive	–
c1ccc2c(c1)ccc1c3ccccc3ccc21 [Chrysene]	–	Inactive	–
c1ccc2cc3c4ccccc4c4ccccc4c3cc2c1 [Dibenz[a,c]anthracene]	–	Inactive	–
N=C(N)NC(=O)Cc1c(Cl)cccc1Cl [Guanfacine hydrochloride]	–	–	Inactive
Brc1c(Br)c(Br)c(Br)c(Br)c1Br [Hexabromobenzene]	Inactive	–	–
c1ccc2nc(N3CCNCC3)ccc2c1 [Quipazine maleate]	–	Inactive	–

Same assay, conditions: human

Structure (SMILES)	CYP2C19 Efficacy (in parenthesis)
Brc1cc2ccccc2c2ccccc12 [9-Bromophenanthrene]	29.42 ± 9.47 (-107 ± 13) %
CCN(CC)C(=O)SCc1ccc(Cl)cc1 [Thiobencarb]	0.66 ± 0.12 (-124 ± 7) %
ClC(Cl)=C(c1ccc(Cl)cc1)c1ccc(Cl)cc1 [p,p'-DDE]	0.57 ± 0.14 (-135 ± 7) %

Target: T4, human CYP2D6 (Homo sapiens, UniProt P10635)
T4 sequence (P10635 whole entry): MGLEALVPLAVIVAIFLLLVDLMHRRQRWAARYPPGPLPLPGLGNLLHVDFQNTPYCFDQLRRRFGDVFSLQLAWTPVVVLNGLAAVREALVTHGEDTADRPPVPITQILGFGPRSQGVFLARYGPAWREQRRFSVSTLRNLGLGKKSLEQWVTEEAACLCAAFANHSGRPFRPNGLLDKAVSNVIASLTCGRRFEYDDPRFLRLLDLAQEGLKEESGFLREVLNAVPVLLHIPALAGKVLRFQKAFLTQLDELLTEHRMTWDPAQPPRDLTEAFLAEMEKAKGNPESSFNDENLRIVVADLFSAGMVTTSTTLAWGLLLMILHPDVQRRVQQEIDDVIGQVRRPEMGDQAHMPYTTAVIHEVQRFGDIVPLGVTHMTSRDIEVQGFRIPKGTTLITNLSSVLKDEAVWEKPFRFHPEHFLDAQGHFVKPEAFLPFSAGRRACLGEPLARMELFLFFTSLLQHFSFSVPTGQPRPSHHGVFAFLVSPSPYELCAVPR
Experiment: not given
Conditions: not given

Structure (SMILES)	CYP2D6 IC50 (half-maximal inhibitory concentration)	CYP2D6 IC50
Nc1c(Br)cc(Br)c2c1C(=O)c1ccccc1C2=O [1-Amino-2,4-dibromoanthraquinone]	Inactive	–
Brc1c2ccccc2c(Br)c2ccccc12 [9,10-Dibromoanthracene]	Inactive	–
Brc1cc2ccccc2c2ccccc12 [9-Bromophenanthrene]	Inactive	–
c1ccc2cc3ccccc3cc2c1 [Anthracene]	–	Inactive
O=C1c2ccccc2C(=O)c2ccccc21 [Anthraquinone]	Inactive	–
c1ccc2cc3c(cc2c1)-c1cccc2cccc-3c12 [Benzo(k)fluoranthene]	–	Inactive
c1ccc2c(c1)ccc1c3ccccc3ccc21 [Chrysene]	–	Inactive
c1ccc2cc3c4ccccc4c4ccccc4c3cc2c1 [Dibenz[a,c]anthracene]	–	Inactive
Brc1c(Br)c(Br)c(Br)c(Br)c1Br [Hexabromobenzene]	Inactive	–
c1ccc2nc(N3CCNCC3)ccc2c1 [Quipazine maleate]	–	Inactive
CCN(CC)C(=O)SCc1ccc(Cl)cc1 [Thiobencarb]	Inactive	–
ClC(Cl)=C(c1ccc(Cl)cc1)c1ccc(Cl)cc1 [p,p'-DDE]	Inactive	–

Target: CYP3A4 (Homo sapiens, UniProt P08684)
Sequence (P08684 whole entry): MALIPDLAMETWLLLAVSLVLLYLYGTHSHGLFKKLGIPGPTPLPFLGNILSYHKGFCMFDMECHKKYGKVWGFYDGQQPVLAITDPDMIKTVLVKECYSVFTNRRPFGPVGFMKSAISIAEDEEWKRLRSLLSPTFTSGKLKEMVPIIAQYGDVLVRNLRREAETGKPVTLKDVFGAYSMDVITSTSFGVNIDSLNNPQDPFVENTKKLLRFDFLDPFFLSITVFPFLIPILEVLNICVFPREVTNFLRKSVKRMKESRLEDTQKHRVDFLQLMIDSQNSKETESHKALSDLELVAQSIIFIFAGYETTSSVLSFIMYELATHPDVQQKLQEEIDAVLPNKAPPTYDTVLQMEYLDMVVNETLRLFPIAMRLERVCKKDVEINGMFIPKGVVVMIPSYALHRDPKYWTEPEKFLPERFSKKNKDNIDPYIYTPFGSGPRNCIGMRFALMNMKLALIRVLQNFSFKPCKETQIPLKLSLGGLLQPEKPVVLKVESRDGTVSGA
Experiment: not given
Conditions: not given

Structure (SMILES)	CYP3A4 IC50 (half-maximal inhibitory concentration)	CYP3A4 IC50
Nc1c(Br)cc(Br)c2c1C(=O)c1ccccc1C2=O [1-Amino-2,4-dibromoanthraquinone]	Inactive	–
Brc1c2ccccc2c(Br)c2ccccc12 [9,10-Dibromoanthracene]	Inactive	–
Brc1cc2ccccc2c2ccccc12 [9-Bromophenanthrene]	Inactive	–
c1ccc2cc3ccccc3cc2c1 [Anthracene]	–	Inactive
O=C1c2ccccc2C(=O)c2ccccc21 [Anthraquinone]	Inactive	–
c1ccc2cc3c(cc2c1)-c1cccc2cccc-3c12 [Benzo(k)fluoranthene]	–	Inactive
c1ccc2c(c1)ccc1c3ccccc3ccc21 [Chrysene]	–	Inactive
c1ccc2cc3c4ccccc4c4ccccc4c3cc2c1 [Dibenz[a,c]anthracene]	–	Inactive
Brc1c(Br)c(Br)c(Br)c(Br)c1Br [Hexabromobenzene]	Inactive	–
c1ccc2nc(N3CCNCC3)ccc2c1 [Quipazine maleate]	–	Inactive
CCN(CC)C(=O)SCc1ccc(Cl)cc1 [Thiobencarb]	Inactive	–
ClC(Cl)=C(c1ccc(Cl)cc1)c1ccc(Cl)cc1 [p,p'-DDE]	Inactive	–

Target: T1, human CYP1A2
Experiment: biochemical
Conditions: CYP1A2 IC50

Structure (SMILES)	IC50
c1ccc2cc3ccccc3cc2c1 [Anthracene]	0.5 µM
c1ccc2cc3c(cc2c1)-c1cccc2cccc-3c12 [Benzo(k)fluoranthene]	0.17 µM
c1ccc2c(c1)ccc1c3ccccc3ccc21 [Chrysene]	0.65 µM
c1ccc2cc3c4ccccc4c4ccccc4c3cc2c1 [Dibenz[a,c]anthracene]	0.21 µM
c1ccc2nc(N3CCNCC3)ccc2c1 [Quipazine maleate]	0.96 µM

Same assay, conditions: CYP1A2 IC50 (half-maximal inhibitory concentration)

Structure (SMILES)	IC50
Nc1c(Br)cc(Br)c2c1C(=O)c1ccccc1C2=O [1-Amino-2,4-dibromoanthraquinone]	0.14 µM
Brc1c2ccccc2c(Br)c2ccccc12 [9,10-Dibromoanthracene]	0.41 µM
Brc1cc2ccccc2c2ccccc12 [9-Bromophenanthrene]	0.32 µM
O=C1c2ccccc2C(=O)c2ccccc21 [Anthraquinone]	0.23 µM
Brc1c(Br)c(Br)c(Br)c(Br)c1Br [Hexabromobenzene]	0.09 µM
CCN(CC)C(=O)SCc1ccc(Cl)cc1 [Thiobencarb]	15.9 µM
ClC(Cl)=C(c1ccc(Cl)cc1)c1ccc(Cl)cc1 [p,p'-DDE]	3.65 µM

Target: T2, human CYP2C9
Experiment: biochemical
Conditions: not given

Structure (SMILES)	IC50
COc1cc(C(C)=O)ccc1OCCCN1CCC(c2noc3cc(F)ccc23)CC1 [Iloperidone]	22.9 ± 14.1 µM

Same assay, conditions: CYP2C9 AC50 (half-maximal activity concentration)

Structure (SMILES)	AC50
CCCCOc1ccc(C(=O)CCN2CCCCC2)cc1 [Dyclonine hydrochloride]	14.5 µM
N=C(N)NC(=O)Cc1c(Cl)cccc1Cl [Guanfacine hydrochloride]	27.3 µM
O=C(O)c1nn(Cc2ccc(Cl)cc2Cl)c2ccccc12 [Lonidamine]	68 µM

Same assay, conditions: CYP2C9 IC50 (half-maximal inhibitory concentration)

Structure (SMILES)	IC50
Brc1cc2ccccc2c2ccccc12 [9-Bromophenanthrene]	56.8 µM
CCN(CC)C(=O)SCc1ccc(Cl)cc1 [Thiobencarb]	25.2 µM
ClC(Cl)=C(c1ccc(Cl)cc1)c1ccc(Cl)cc1 [p,p'-DDE]	12.9 µM

Target: T3, human CYP2C19
Experiment: biochemical
Conditions: CYP2C19 IC50

Structure (SMILES)	IC50
c1ccc2cc3ccccc3cc2c1 [Anthracene]	67 µM

Same assay, conditions: CYP2C19 IC50 (half-maximal inhibitory concentration)

Structure (SMILES)	IC50
Brc1cc2ccccc2c2ccccc12 [9-Bromophenanthrene]	29.4 µM
CCN(CC)C(=O)SCc1ccc(Cl)cc1 [Thiobencarb]	0.66 µM
ClC(Cl)=C(c1ccc(Cl)cc1)c1ccc(Cl)cc1 [p,p'-DDE]	0.57 µM

Target: T4, human CYP2D6
Experiment: biochemical
Conditions: not given

Structure (SMILES)	IC50
COc1cc(C(C)=O)ccc1OCCCN1CCC(c2noc3cc(F)ccc23)CC1 [Iloperidone]	10.1 ± 2.8 µM

Same assay, conditions: CYP2D6 AC50 (half-maximal activity concentration)

Structure (SMILES)	AC50
CCCCOc1ccc(C(=O)CCN2CCCCC2)cc1 [Dyclonine hydrochloride]	6.92 µM
N=C(N)NC(=O)Cc1c(Cl)cccc1Cl [Guanfacine hydrochloride]	25.8 µM
O=C(O)c1nn(Cc2ccc(Cl)cc2Cl)c2ccccc12 [Lonidamine]	66 µM
